{"source": "patent US20190150447A1", "about": "“CONDENSED HETEROCYCLIC COMPOUND” (Sumitomo Chemical Company, Limited, priority 2015, published 2019)", "assay_type_in_all_cases": "in vivo", "key": {"[1]": {"system": "cotton aphid (Aphis gossypii)", "assay": "Test Example 1: foliar spray on cucumber seedling against cotton aphid", "conditions": "500 ppm; spray 10 mL/seedling on cucumber; all stages of life; after 5 days", "experimental": "The test compounds is made to a formulation according to the method described in the Formulation Example 5, and thereto is added water containing 0.03 v/v % of a spreader to prepare a diluted solution containing a prescribed concentration of the test compound. Cucumber (Cucumis sativus) seedling (on the developmental stage of the second true leaf) is planted in a plastic cup, and approximately 30 heads of cotton aphid (Aphis gossypii) (all stages of life) are released onto the leaves of the cucumber. After 1 day, the diluted solutions were sprayed into the seedling in a ratio of 10 mL/seedling. After 5 days, the number of the surviving insects is examined and the controlling value is calculated by the following equation. Controlling value (%)={1−(Cb×Tai)/(Cai×Tb)}×100 wherein the symbols in the equation represent the following descriptions. Cb: Number of the test insects in untreated group; Cai: Number of the surviving insects at the time of the investigation in untreated group; Tb: Number of the test insects in treated group; Tai: Number of the surviving insects at the time of the investigation in treated group; Here the “untreated group” represents a group where the similar treatment procedure to that of the treated group except not using the test compound is done."}, "[2]": {"system": "brown planthopper (Nilaparvata lugens)", "assay": "Test Example 2: foliar spray on rice seedling against brown planthopper", "conditions": "144 h, spray 10 mL/seedling on rice, 3rd instar larvae, after 6 days, read-out: mortality of insects", "experimental": "(§1) The test compound is made to a formulation according to the method described in the Formulation Example 5, and thereto is added water containing 0.03 v/v % of a spreader to prepare a diluted solution containing a prescribed concentration of the test compound.\nRice (Oryza sativa) seedling (on the developmental stage of the second true leaf) is planted in a plastic cup, and the diluted solutions are sprayed into the seedling in a ratio of 10 mL/seedling. Thereafter, 20 heads of 3rd instar larvae of brown planthopper (Nilaparvata lugens) are released onto the rice leaves. After 6 days, the morality is calculated by the following equation.\nMorality (%)={1−the number of the surviving insects/20}×100"}, "[3]": {"system": "cabbage moth (Plutella xylostella)", "assay": "Test Example 3: foliar spray on cabbage seedling against cabbage moth", "conditions": "120 h, spray 20 mL/seedling on cabbage, second instar larvae, after 5 days, read-out: mortality of insects", "experimental": "as §1\nThe diluted solutions are sprayed into the cabbage (Brassicae oleracea) seedling (on the developmental stage of the second to third true leaf) that is planted in a container in a ratio of 20 mL/seedling. Thereafter, the stem and leaf thereof is cut out and then is installed into the container that is covered with the filter paper. Five (5) heads of cabbage moth (Plutella xylostella) at the second instar larval stages are released into the cup. After 5 days, the surviving insects are counted, and the mortality of insects is calculated by the following equation.\nMorality (%)={1−the number of the surviving insects/5}×100"}, "[4]": {"system": "housefly (Musca domestica)", "assay": "Test Example 4: filter paper/sucrose bait test against housefly", "conditions": "0.7 mL on filter paper, female adult, after 24 hours, read-out: mortality of insects", "experimental": "(§2) The test compound is made to a formulation according to the method described in the Formulation Example 5, and thereto is added water to prepare a diluted solution containing a prescribed concentration of the test compound.\nThe bottom of the plastic cup having 5.5 cm diameter is matted with the same size of a filter paper, and 0.7 mL of the diluted solution is added dropwise to the filter paper, and 30 mg sucrose as bait is placed in the cup uniformly. Ten (10) heads of female adult housefly (Musca domestica) are released into the plastic cup, and the cup is covered with the lid. After 24 hours, the life and death of housefly is examined and the mortality of insects is determined. The mortality of insects is calculated by the following equation.\n(§3) Mortality of insects (%)=(Number of dead insects/Number of test insects)×100"}, "[5]": {"system": "German cockroach (Blattella germanica)", "assay": "Test Example 5: filter paper/sucrose bait test against German cockroach", "conditions": "144 h, 0.7 mL on filter paper, male, after 6 days, read-out: mortality of insects", "experimental": "as §2\nThe bottom of the plastic cup having 5.5 cm diameter is matted with the same size of a filter paper, and 0.7 mL of the diluted solution is added dropwise to the filter paper, and 30 mg sucrose as bait is placed in the cup uniformly. Two (2) heads of male German cockroach (Blattella germanica) are released into the plastic cup, and the cup is covered with the lid. After 6 days, the life and death of German cockroach is examined and the number of died insects is counted, and the mortality of insects is calculated by the following equation.\nas §3"}, "[6]": {"system": "common house mosquito (Culex pipiens pallens)", "assay": "Test Example 6: larvae released into diluted solution, common house mosquito", "conditions": "24 h, last instar larvae in diluted solution, after 1 day, read-out: mortality of insects", "experimental": "as §2\nThirty (30) heads of last instar larvae of common house mosquito (Culex pipiens pallens) are released into the diluted solutions and after 1 day, the life and dead of common house mosquito is examined, and the mortality of insects is calculated by the following equation.\nMortality of insects (%)=((Number of dead insects/Numboer of test insects)×100"}}, "data": [{"smiles": "CCS(=O)(=O)c1ccc(-n2cncn2)nc1-c1nc2cc(C(F)(F)F)ncc2n1C", "note": "[Present compound 1]", "values": [{"measurement": "controlling value", "setting": "[1]", "value": 100, "unit": "%"}, {"measurement": "mortality at 500 ppm", "setting": "[2]", "value": 100, "unit": "%"}, {"measurement": "mortality at 500 ppm", "setting": "[3]", "value": 100, "unit": "%"}, {"measurement": "mortality at 500 ppm", "setting": "[4]", "value": 100, "unit": "%"}, {"measurement": "mortality at 500 ppm", "setting": "[5]", "value": 100, "unit": "%"}, {"measurement": "mortality at 3.5 ppm", "setting": "[6]", "value": 91, "unit": "%"}]}]}
